In brackets after ≈: the same amount, converted by molar mass.

The test system of one test is S. aureus. Kind of test: MIC assay, S. aureus. The format is cell-based, Staphylococcus aureus.
The next test deals with S. pneumo. Briefly: MIC assay, S. pneumo. The format is cell-based, Streptococcus pneumoniae.
The test system of a further test is E. faecalis. Briefly: MIC assay, E. faecalis. The format is cell-based, Enterococcus faecalis.
A further test deals with H. flu. It counts as cell-based, H. influenza. Particulars: H. flu.
Another test has as its system E coli. Briefly: MIC assay, E coli. The format is cell-based.

Regarding `COC1C=COC2(C)Oc3c(C)c(O)c4c(=O)c(c5oc6cc(N7CCC(NC(=O)SC)CC7)cc(O)c6nc-5c4c3C2=O)NC(=O)C(C)=CC=CC(C)C(O)C(C)C(O)C(C)C(OC(C)=O)C1C` (stereo not drawn) [Compound 45, 3′-hydroxy-5′-[4-S-methylthiocarbamyl-1-piperidinyl]benzoxazinorifamycin], the “MIC (μg/mL) S. aureus” value in the test with S. aureus was 0.015 µg/mL (≈ 15.4 nM). In addition, in the test with S. pneumo., the “MIC (μg/mL) S. pneumo.” value worked out at 0.001 µg/mL (≈ 1.03 nM). In addition, in the test on E. faecalis, the “MIC (μg/mL) E. faecalis” value is 4 µg/mL (≈ 4110 nM). In addition, the “MIC (μg/mL) H. flu” value against H. flu stood at 0.5 µg/mL (≈ 514 nM). For the same compound, in the test on E coli, the “MIC (μg/mL) E coli” value was found to be 8 µg/mL (≈ 8220 nM).
The matching figures for `COC1C=COC2(C)Oc3c(C)c(O)c4c(=O)c(c5oc6cc(N7CC8CCCN(C(C)=O)C8C7)cc(O)c6nc-5c4c3C2=O)NC(=O)C(C)=CC=CC(C)C(O)C(C)C(O)C(C)C(O)C1C` [Compound 46, 25-O-deacetyl-3′-hydroxy-5′-[1-acetyl-(4aR,7aR)-octahydro-6H-pyrrolo[3,4-b]pyridin-6-yl]benzoxazinorifamycin]: 0.004 µg/mL (≈ 4.32 nM), 0.00006 µg/mL (≈ 0.0649 nM), 2 µg/mL (≈ 2160 nM), 0.5 µg/mL (≈ 541 nM) and over 8 µg/mL.
The matching figures for `COC1C=COC2(C)Oc3c(C)c(O)c4c(=O)c(c5oc6cc(N7CC8CCCN(C(C)=O)C8C7)cc(O)c6nc-5c4c3C2=O)NC(=O)C(C)=CC=CC(C)C(O)C(C)C(O)C(C)C(OC(C)=O)C1C` [Compound 47, 3′-hydroxy-5′-[1-acetyl-(4aR,7aR)-octahydro-6H-pyrrolo[3,4-b]pyridin-6-yl]benzoxazinorifamycin]: 0.008 µg/mL (≈ 8.27 nM), 0.002 µg/mL (≈ 2.07 nM), 1 µg/mL (≈ 1030 nM), 0.25 µg/mL (≈ 259 nM) and over 8 µg/mL.
The corresponding values for `COC1C=COC2(C)Oc3c(C)c(O)c4c(=O)c(c5oc6cc(N7CCC(NC(=O)OC(C)(C)C)CC7)cc(O)c6nc-5c4c3C2=O)NC(=O)C(C)=CC=CC(C)C(O)C(C)C(O)C(C)C(OC(C)=O)C1C` (stereo not drawn) [Compound 48] are 0.008 µg/mL (≈ 8.01 nM), 0.00025 µg/mL (≈ 0.25 nM), 2 µg/mL (≈ 2000 nM), 1 µg/mL (≈ 1000 nM) and over 8 µg/mL.
For the compound `COC1C=COC2(C)Oc3c(C)c(O)c4c(=O)c(c5oc6cc(N7CCC(NC(=O)N8CCC(NC(=O)SC)CC8)CC7)cc(O)c6nc-5c4c3C2=O)NC(=O)C(C)=CC=CC(C)C(O)C(C)C(O)C(C)C(OC(C)=O)C1C` (stereo not drawn) [Compound 49, 3′-hydroxy-5′-[4-(4-(S-methylthiocarbamyl)-1-piperidinylcarbonyl)amino-1-piperidinyl]benzoxazinorifamycin], the “MIC (μg/mL) S. aureus” value against S. aureus amounted to 0.06 µg/mL (≈ 54.6 nM). Further, the “MIC (μg/mL) S. pneumo.” value against S. pneumo. amounted to 0.0005 µg/mL (≈ 0.455 nM). For the same compound, in the test on E. faecalis, the “MIC (μg/mL) E. faecalis” value came to 8 µg/mL (≈ 7280 nM). The “MIC (μg/mL) H. flu” value in the test with H. flu came out at 2 µg/mL (≈ 1820 nM). Besides, the “MIC (μg/mL) E coli” value in the test with E coli was over 8 µg/mL.
The matching figures for `COC1C=COC2(C)Oc3c(C)c(O)c4c(=O)c(c5oc6cc(N7CCC(NC(=O)N8CCN(C)CC8)CC7)cc(O)c6nc-5c4c3C2=O)NC(=O)C(C)=CC=CC(C)C(O)C(C)C(O)C(C)C(OC(C)=O)C1C` (stereo not drawn) [Compound 50, 3′-hydroxy-5′-[4-(4-methylpiperazinylcarbonyl)amino-1-piperidinyl]benzoxazinorifamycin]: 0.03 µg/mL (≈ 29.3 nM), 0.00012 µg/mL (≈ 0.117 nM), 4 µg/mL (≈ 3900 nM), 0.5 µg/mL (≈ 488 nM) and over 8 µg/mL.
The corresponding values for `CCOC(=O)NCC1CCN(c2cc(O)c3nc4c5c6c7c(C)c(O)c5c(=O)c(c-4oc3c2)NC(=O)C(C)=CC=CC(C)C(O)C(C)C(O)C(C)C(OC(C)=O)C(C)C(OC)C=COC(C)(O7)C6=O)CC1` (stereo not drawn) [Compound 51] are 0.06 µg/mL (≈ 60.9 nM), 0.002 µg/mL (≈ 2.03 nM), 8 µg/mL (≈ 8120 nM), 0.25 µg/mL (≈ 254 nM) and 8 µg/mL (≈ 8120 nM).
The corresponding values for `COC1C=COC2(C)Oc3c(C)c(O)c4c(=O)c(c5oc6cc(N7CCC(NC(=O)OC(C)(C)C)CC7)cc(O)c6nc-5c4c3C2=O)NC(=O)C(C)=CC=CC(C)C(O)C(C)C(O)C(C)C(O)C1C` (stereo not drawn) [Compound 52, 25-O-deacetyl-3′-hydroxy-5′-[4-(2,2-dimethylethyl)carbamyl-1-piperidinyl]benzoxazinorifamycin] are 0.015 µg/mL (≈ 15.7 nM), 0.00025 µg/mL (≈ 0.261 nM), 4 µg/mL (≈ 4180 nM), 0.12 µg/mL (≈ 125 nM) and over 8 µg/mL.
In the case of `COC1C=COC2(C)Oc3c(C)c(O)c4c(=O)c(c5oc6cc(N7CC8C(C7)C8N(C)C)cc(O)c6nc-5c4c3C2=O)NC(=O)C(C)=CC=CC(C)C(O)C(C)C(O)C(C)C(OC(C)=O)C1C` [Compound 53, 3′-hydroxy-5′-[6-N,N-dimethylamino-(1R,5S)-3-azabicyclo[3.1.0]hex-3-yl]benzoxazinorifamycin], the “MIC (μg/mL) S. aureus” value with S. aureus worked out at 0.06 µg/mL (≈ 64.9 nM). Besides, the “MIC (μg/mL) S. pneumo.” value against S. pneumo. turned out to be 0.008 µg/mL (≈ 8.65 nM). In addition, the “MIC (μg/mL) E. faecalis” value against E. faecalis was found to be 4 µg/mL (≈ 4320 nM). Further, the “MIC (μg/mL) H. flu” value against H. flu turned out to be 2 µg/mL (≈ 2160 nM). Further, the “MIC (μg/mL) E coli” value in the test with E coli was over 8 µg/mL.
The matching figures for `COC1C=COC2(C)Oc3c(C)c(O)c4c(=O)c(c5oc6cc(N7CC8C(C7)C8N(C)C)cc(O)c6nc-5c4c3C2=O)NC(=O)C(C)=CC=CC(C)C(O)C(C)C(O)C(C)C(O)C1C` [Compound 54, 3′-hydroxy-5′-[6-N,N-dimethylamino-(1R,5S)-3-azabicyclo[3.1.0]hex-3-yl]benzoxazinorifamycin]: 0.008 µg/mL (≈ 9.06 nM), 0.0005 µg/mL (≈ 0.566 nM), 2 µg/mL (≈ 2260 nM), 0.25 µg/mL (≈ 283 nM) and over 8 µg/mL.
The matching figures for `COC1C=COC2(C)Oc3c(C)c(O)c4c(=O)c(c5oc6cc(N7CCC(CNC(C)=O)CC7)cc(O)c6nc-5c4c3C2=O)NC(=O)C(C)=CC=CC(C)C(O)C(C)C(O)C(C)C(OC(C)=O)C1C` (stereo not drawn) [Compound 55, 3′-hydroxy-5′-[4-acetylaminomethyl-1-piperidinyl]benzoxazinorifamycin]: 0.008 µg/mL (≈ 8.38 nM), 0.00025 µg/mL (≈ 0.262 nM), 1 µg/mL (≈ 1050 nM), 0.5 µg/mL (≈ 524 nM) and 8 µg/mL (≈ 8380 nM).
The corresponding values for `COC1C=COC2(C)Oc3c(C)c(O)c4c(=O)c(c5oc6cc(N7CCC(CNC(C)=O)CC7)cc(O)c6nc-5c4c3C2=O)NC(=O)C(C)=CC=CC(C)C(O)C(C)C(O)C(C)C(O)C1C` (stereo not drawn) [Compound 56, 25-O-deacetyl-3′-hydroxy-5′-[4-acetylaminomethyl-1-piperidinyl]benzoxazinorifamycin] are 0.004 µg/mL (≈ 4.38 nM), 0.001 µg/mL (≈ 1.1 nM), 0.12 µg/mL (≈ 131 nM), 0.25 µg/mL (≈ 274 nM) and 8 µg/mL (≈ 8760 nM).

Source of the values: US7271165B2, “Rifamycin analogs and uses thereof” (priority 2003, dated 2007).
